ChEMBL document CHEMBL1128530, “Alpha- and beta-adrenoceptors: from the gene to the clinic. 1. Molecular biology and adrenoceptor subclassification” (J Med Chem, 1995)
pKi: −log10 of the molar value.

Tests used:
[1] = target: T1, Alpha-2A adrenergic receptor (Rattus norvegicus, UniProt P22909); experiment: The compound was tested for binding affinity against alpha-2D adrenergic receptor, from rat clones.
T1 sequence (P22909 whole entry): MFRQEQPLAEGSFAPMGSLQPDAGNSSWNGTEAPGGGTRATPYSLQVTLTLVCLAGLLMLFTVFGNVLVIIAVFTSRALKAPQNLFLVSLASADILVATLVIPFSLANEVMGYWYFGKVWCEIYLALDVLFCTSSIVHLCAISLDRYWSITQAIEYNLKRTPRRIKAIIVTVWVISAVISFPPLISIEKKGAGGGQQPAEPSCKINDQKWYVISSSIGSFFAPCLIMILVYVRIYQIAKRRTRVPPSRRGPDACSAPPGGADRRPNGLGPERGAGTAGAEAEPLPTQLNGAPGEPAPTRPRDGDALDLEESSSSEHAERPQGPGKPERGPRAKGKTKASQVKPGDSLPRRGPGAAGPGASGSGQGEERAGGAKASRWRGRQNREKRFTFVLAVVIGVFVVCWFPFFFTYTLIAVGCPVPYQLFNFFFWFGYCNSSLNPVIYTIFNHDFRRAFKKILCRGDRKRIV

[2] = target: T2, Alpha-2C adrenergic receptor (Homo sapiens, UniProt P18825); experiment: Binding affinity against Alpha-2C adrenergic receptor from human clones.
T2 sequence (P18825 whole entry): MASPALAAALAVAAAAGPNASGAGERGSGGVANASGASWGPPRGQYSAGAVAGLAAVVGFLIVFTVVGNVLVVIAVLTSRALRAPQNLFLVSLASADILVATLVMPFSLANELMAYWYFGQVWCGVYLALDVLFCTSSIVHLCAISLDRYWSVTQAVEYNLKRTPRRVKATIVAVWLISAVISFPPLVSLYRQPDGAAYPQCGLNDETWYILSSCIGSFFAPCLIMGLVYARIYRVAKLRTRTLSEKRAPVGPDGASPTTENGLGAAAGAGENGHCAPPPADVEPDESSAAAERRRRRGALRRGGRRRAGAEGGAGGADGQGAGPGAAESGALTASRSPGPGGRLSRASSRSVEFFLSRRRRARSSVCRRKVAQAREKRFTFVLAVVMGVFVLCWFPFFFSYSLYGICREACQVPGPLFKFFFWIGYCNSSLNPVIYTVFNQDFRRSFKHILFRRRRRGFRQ

[3] = target: T3, Alpha-2B adrenergic receptor (Homo sapiens, UniProt P18089); experiment: Binding affinity against Alpha-2B adrenergic receptor from human clones.
T3 sequence (P18089 whole entry): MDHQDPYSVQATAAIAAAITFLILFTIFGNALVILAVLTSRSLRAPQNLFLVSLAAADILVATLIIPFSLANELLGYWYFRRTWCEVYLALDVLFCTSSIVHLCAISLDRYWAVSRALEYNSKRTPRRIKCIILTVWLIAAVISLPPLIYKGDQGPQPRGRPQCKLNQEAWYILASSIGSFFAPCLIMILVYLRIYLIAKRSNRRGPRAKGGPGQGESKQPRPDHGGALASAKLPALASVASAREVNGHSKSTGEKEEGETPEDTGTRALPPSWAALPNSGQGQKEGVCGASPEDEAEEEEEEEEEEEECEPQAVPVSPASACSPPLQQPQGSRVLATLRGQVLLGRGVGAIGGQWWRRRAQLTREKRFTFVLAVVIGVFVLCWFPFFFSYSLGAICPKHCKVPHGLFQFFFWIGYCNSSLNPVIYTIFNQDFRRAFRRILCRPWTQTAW

[4] = target: T4, Alpha-2A adrenergic receptor (Homo sapiens, UniProt P08913); experiment: Binding affinity against Alpha-2A adrenergic receptor, from human clones.
T4 sequence (P08913 whole entry): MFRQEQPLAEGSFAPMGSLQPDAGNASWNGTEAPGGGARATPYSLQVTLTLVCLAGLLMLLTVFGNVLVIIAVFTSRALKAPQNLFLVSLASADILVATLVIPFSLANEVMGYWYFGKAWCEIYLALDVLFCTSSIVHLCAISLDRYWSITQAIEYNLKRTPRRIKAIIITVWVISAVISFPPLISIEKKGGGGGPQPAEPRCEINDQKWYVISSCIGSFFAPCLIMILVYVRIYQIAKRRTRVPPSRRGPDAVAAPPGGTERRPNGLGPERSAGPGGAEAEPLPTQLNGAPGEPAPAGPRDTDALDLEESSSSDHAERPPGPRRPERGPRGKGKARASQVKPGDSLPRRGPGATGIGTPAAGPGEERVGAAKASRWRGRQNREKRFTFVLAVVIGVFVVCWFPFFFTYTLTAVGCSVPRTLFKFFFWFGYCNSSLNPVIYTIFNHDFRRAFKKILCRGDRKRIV

[5] = target: T5, Alpha-1D adrenergic receptor (Rattus norvegicus, UniProt P23944); experiment: Binding affinity against Alpha-1D adrenergic receptor, from rat clones.
T5 sequence (P23944 whole entry): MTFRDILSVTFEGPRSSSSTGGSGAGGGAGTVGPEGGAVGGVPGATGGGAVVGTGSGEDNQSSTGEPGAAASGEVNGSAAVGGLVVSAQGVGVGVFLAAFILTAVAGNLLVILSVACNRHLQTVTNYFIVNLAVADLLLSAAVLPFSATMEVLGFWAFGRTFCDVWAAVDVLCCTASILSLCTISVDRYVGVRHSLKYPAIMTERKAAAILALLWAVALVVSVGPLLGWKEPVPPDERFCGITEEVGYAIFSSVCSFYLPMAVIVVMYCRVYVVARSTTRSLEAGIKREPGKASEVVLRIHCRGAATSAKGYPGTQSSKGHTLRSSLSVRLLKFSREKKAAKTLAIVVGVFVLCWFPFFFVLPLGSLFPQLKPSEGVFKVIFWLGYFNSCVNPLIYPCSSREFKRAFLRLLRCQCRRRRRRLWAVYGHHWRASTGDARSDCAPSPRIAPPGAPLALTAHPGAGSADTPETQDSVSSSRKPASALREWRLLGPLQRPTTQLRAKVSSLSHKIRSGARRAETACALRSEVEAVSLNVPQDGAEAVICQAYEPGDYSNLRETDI

[6] = target: T6, Alpha-1A adrenergic receptor (Bos taurus, UniProt P18130); experiment: Binding affinity against Alpha-1A adrenergic receptor from bovine clone
T6 sequence (P18130 whole entry): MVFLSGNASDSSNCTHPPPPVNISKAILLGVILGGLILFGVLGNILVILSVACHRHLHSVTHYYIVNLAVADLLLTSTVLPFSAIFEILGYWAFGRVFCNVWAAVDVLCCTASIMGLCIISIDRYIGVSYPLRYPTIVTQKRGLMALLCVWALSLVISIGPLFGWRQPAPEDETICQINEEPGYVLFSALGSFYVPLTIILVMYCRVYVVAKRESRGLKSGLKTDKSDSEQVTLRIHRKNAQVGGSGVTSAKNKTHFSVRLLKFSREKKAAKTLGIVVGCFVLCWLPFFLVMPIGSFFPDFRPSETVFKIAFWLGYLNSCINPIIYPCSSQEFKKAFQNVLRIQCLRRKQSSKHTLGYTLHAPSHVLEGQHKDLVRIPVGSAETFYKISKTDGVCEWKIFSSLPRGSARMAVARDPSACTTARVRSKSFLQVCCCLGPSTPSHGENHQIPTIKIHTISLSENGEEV

[7] = target: T7, Alpha-1D adrenergic receptor (Homo sapiens, UniProt P25100); experiment: Binding affinity against Alpha-1D adrenergic receptor, from human clones.
T7 sequence (P25100 whole entry): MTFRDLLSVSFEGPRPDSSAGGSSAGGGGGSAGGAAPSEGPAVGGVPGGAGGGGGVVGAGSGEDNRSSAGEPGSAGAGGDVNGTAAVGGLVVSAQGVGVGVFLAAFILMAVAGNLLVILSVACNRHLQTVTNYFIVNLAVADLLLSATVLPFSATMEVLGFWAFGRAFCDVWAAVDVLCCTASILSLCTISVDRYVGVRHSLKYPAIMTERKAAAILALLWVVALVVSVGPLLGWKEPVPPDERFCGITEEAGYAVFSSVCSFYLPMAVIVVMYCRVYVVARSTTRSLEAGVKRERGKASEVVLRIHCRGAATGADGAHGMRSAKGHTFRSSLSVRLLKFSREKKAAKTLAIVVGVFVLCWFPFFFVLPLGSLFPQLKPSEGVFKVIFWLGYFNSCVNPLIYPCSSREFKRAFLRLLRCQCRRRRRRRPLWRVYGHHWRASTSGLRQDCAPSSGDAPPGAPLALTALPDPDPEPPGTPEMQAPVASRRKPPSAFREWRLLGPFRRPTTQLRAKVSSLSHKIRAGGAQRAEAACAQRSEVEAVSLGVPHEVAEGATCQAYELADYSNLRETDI

[8] = target: T8, Alpha-1B adrenergic receptor (Homo sapiens, UniProt P35368); experiment: Binding affinity against Alpha-1B adrenergic receptor from human clone
T8 sequence (P35368 whole entry): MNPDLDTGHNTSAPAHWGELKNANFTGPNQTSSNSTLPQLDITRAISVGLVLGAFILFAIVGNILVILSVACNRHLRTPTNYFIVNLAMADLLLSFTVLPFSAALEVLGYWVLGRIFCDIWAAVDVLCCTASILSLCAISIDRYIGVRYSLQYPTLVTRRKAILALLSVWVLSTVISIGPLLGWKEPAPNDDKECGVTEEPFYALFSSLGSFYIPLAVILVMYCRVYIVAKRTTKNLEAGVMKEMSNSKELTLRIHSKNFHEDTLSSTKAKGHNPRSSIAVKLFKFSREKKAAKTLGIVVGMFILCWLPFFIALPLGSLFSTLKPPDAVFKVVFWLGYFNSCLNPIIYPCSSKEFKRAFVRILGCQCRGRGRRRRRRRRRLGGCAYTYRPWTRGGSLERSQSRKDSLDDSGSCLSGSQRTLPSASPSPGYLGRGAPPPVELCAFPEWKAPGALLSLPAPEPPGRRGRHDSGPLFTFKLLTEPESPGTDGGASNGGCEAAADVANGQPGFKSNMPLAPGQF

[9] = target: T9, Alpha-2A adrenergic receptor (Sus scrofa, UniProt P18871)
T9 sequence (P18871 whole entry): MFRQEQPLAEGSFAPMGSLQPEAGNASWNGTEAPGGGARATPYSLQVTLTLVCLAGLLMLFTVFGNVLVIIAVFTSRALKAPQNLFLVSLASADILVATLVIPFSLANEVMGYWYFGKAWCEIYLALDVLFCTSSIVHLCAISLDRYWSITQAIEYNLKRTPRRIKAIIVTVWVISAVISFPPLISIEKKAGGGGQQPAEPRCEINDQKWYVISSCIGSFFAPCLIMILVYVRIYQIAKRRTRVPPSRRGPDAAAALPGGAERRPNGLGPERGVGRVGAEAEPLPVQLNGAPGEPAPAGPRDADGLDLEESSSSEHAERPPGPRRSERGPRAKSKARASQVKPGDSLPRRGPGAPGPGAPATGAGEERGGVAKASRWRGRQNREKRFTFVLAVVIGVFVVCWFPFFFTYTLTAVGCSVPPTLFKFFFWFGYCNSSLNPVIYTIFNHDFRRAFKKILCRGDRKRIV

[10] = target: T10, Alpha-2A adrenergic receptor (Bos taurus, UniProt Q28838); experiment: Compound was evaluated for inhibition of binding of [3H]MK-91 to Alpha-2 adrenergic receptor in bovine pineal
T10 sequence (Q28838 whole entry): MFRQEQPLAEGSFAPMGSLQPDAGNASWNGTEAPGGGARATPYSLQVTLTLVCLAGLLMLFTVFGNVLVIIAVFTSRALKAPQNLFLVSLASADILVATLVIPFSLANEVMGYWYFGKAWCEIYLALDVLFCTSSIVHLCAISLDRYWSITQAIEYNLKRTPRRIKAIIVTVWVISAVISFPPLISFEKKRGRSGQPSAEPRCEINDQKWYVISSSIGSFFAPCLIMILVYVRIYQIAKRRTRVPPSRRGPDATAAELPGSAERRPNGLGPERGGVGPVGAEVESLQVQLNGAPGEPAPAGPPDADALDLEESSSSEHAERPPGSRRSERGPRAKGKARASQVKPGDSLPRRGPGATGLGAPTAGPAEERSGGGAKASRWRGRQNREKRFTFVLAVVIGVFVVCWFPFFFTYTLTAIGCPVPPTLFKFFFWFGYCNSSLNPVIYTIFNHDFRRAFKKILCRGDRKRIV

Row | SMILES | pKi [4] | pKi [5] | pKi [6] | pKi [7] | further results
1 | CC(C)=CCOc1ccc(Cl)c2c1CCN(C)CC2 | 6.94 |  |  |  | pKi [1]: 6.50; pKi [2]: 7.19; pKi [3]: 6.85
2 | COC(=O)[C@H]1[C@H]2C[C@H]3c4[nH]c5ccccc5c4CCN3C[C@H]2CC[C@@H]1O [RAUWOLSCINE] |  | 7.46 |  |  | 
3 | COc1cc2nc(N3CCN(C(=O)C4CCCO4)CC3)nc(N)c2cc1OC (stereo unspecified) [TERAZOSIN] | 5.43 | 7.46 | 7.59 | 8.46 | 
4 | COc1cc2nc(N(C)CCCNC(=O)C3CCCO3)nc(N)c2cc1OC (stereo unspecified) [ALFUZOSIN] |  | 8.46 |  | 8.44 | pKi [8]: 8.55
5 | COc1cc2nc(N3CCN(C(=O)c4ccco4)CC3)nc(N)c2cc1OC [PRAZOSIN] |  |  |  |  | pKi [9]: 5.39; pKi [10]: 6.97
6 | COc1cc2c(cc1OC)CN(c1cc(N)c3cc(OC)c(OC)cc3n1)CC2 [ABANOQUIL] |  | 10.52 | 10.52 |  | 
